Assay [1] deals with T1, human M2 receptor (Homo sapiens, UniProt P08172).
T1 sequence (P08172 1-466): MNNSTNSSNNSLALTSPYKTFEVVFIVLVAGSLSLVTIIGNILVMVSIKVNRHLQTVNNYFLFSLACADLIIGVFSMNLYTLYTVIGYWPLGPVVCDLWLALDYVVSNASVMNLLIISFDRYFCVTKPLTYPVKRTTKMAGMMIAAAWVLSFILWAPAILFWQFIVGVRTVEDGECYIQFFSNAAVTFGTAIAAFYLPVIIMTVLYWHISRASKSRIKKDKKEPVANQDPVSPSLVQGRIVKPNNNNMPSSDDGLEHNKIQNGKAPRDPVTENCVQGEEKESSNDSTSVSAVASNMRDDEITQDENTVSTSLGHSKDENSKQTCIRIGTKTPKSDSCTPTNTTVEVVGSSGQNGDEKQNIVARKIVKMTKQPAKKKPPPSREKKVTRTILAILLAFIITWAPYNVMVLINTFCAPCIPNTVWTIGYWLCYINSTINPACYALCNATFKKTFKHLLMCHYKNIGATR
The assay is described as follows: Functional M2-GIRK1/4 activation test: positive cooperativity (alpha factor). As to conditions: shift of acetylcholine dose-response curve (Allosteric EC50 shift); CHO-DUKX-M2-GIRK cells.
From the text: The binding of orthosteric agonists (endogenous ligand: acetylcholine) to the M2 receptor leads to receptor activation or a change in conformation of the receptor in the manner of a shift in equilibrium in favor of the active receptor conformation.
The agonist-induced change in conformation of the M2 receptor results in a Gαi protein activation. […] Under physiological conditions, the result is then a selective efflux of potassium from the cell along the electrochemical gradient. […] The extent of hyperpolarization can therefore be regarded as a measure of the activation of the M2 receptor.
The test cell used is a recombinant CHO-DUKX cell line which has been stably transfected with cDNA coding for the human M2 receptor and with cDNA coding for both GIRK1/4 subunits (CHO-DUKX-M2-GIRK). The transmembrane potential, or the relative changes in the transmembrane potential as a function of substance addition or M2 activation, is determined by means of a voltage-sensitive dye (FLIPR Membrane Potential Assay Kit Blue, Molecular Devices #R8034) and the measurement of cell fluorescence using a proprietary fluorescence imaging instrument.
In accordance with the desired test concentrations, the substances were pre-diluted in loading buffer (see above).
The sowing medium consisted of MEM alpha medium (supplemented with 5% FCS, 2% Glutamax, no genticin).
For the particular measurement, the medium was removed and the cells were laden with the voltage-sensitive dye for at least 6 min at room temperature (30 μl of loading buffer per 384-well). This was followed, in a first measurement, by the determination of the resting transmembrane potential for a period of 5 sec in 1 sec increments. Thereafter, 10 μl in each case of the test substances diluted in loading buffer are added, followed by a second measurement to determine the transmembrane potential for a period of 50 sec in 1 sec increments.
Finally, the cells are admixed with 10 μl of agonist solution (acetylcholine dissolved in loading buffer). In contrast to the EC50 determination of the test substances (see B-1.1), however, this is not done using one acetylcholine concentration; instead, every concentration of the test substance is combined with an acetylcholine 8-point dose-response curve. […] The M2-mediated GIRK1/4 activation or hyperpolarization is then monitored in a third measurement over a period of 60 sec in 1 sec increments. The shift in the acetylcholine dose-response curve in the presence of increasing concentrations of the test substance is analyzed and quantified by means of GraphPad PRISM (Allosteric EC50 shift). […] Positive cooperativity is the hallmark of a positive allosteric modulator. […] The greater the magnitude of the cc value, the greater the extent of cooperativity between orthosteric and allosteric.

For assay [2], the target named is T1, human M2 receptor. The assay is described as follows: Functional M2-GIRK1/4 activation test: allosteric potency (EC50) and efficiency. The note with it: for EC50: Receptor activity EC50, CHO-DUKX-M2-GIRK cells, acetylcholine at EC20, in some cases mean of two or more determinations; for Emax: read-out: Efficiency, boosting of the acetylcholine effect at EC20 acetylcholine concentration; for Emax / Efficiency: CHO-DUKX-M2-GIRK cells; for Efficiency: boosting of the acetylcholine effect at EC20 acetylcholine concentration.

`O=C(NC(c1ccccc1Cl)C(F)(F)F)c1cn(-c2ncc(F)cc2F)c2nc(N3C[C@@H](O)CC3=O)ccc2c1=O` (mixture of isomers) [Example 4, N-[1-(2-Chlorophenyl)-2,2,2-trifluoroethyl]-1-(3,5-difluoropyridin-2-yl)-7-[(4S)-4-hydroxy-2-oxopyrrolidin-1-yl]-4-oxo-1,4-dihydro-1,8-naphthyridine-3-carboxamide]: the “Cooperativity (alpha factor)” value on human M2 receptor [1] is given as 63. Further, on human M2 receptor [2], the half-maximal effective concentration (EC50) worked out at 14 nM and the Emax worked out at 98.2%.

Consider `CCC(COC(F)(F)F)NC(=O)c1cn(-c2ncc(F)cc2F)c2nc(N3C[C@@H](O)CC3=O)ccc2c1=O` (mixture of isomers) [Example 17, 1-(3,5-Difluoropyridin-2-yl)-7-[(4S)-4-hydroxy-2-oxopyrrolidin-1-yl]-4-oxo-N-[1-(trifluoromethoxy)butan-2-yl]-1,4-dihydro-1,8-naphthyridine-3-carboxamide], for which the “Cooperativity (alpha factor)” value at human M2 receptor [1] was found to be 24. Also, at human M2 receptor [2], a half-maximal effect (EC50) was put at 111 nM and the Emax was found to be 88%.

In the case of `CC1CC(=O)N(c2ccc3c(=O)c(C(=O)N[C@H](C4CC4)C(F)(F)F)cn(-c4ncc(F)cc4F)c3n2)C1` (mixture of isomers) [Example 27, N-[(1R)-1-Cyclopropyl-2,2,2-trifluoroethyl]-1-(3,5-difluoropyridin-2-yl)-7-[4-methyl-2-oxopyrrolidin-1-yl]-4-oxo-1,4-dihydro-1,8-naphthyridine-3-carboxamide], the “Cooperativity (alpha factor)” value at human M2 receptor [1] is 10. At human M2 receptor [2], the 50% effective concentration (EC50) is 36 nM and the Emax came out at 79%.

On to `O=C(NC(c1ccccc1Cl)C(F)(F)F)c1cn(-c2ncc(F)cc2F)c2nc(N3C[C@@H](O)CC3=O)ccc2c1=O` (single isomer, unassigned) [Example 5], for which, on human M2 receptor [1], the “Cooperativity (alpha factor)” value amounted to 63. On human M2 receptor [2], the concentration for a half-maximal effect (EC50) came out at 31 nM and the Efficiency was found to be 98.25%.

Regarding `CCC(COC(F)(F)F)NC(=O)c1cn(-c2ncc(F)cc2F)c2nc(N3C[C@@H](O)CC3=O)ccc2c1=O` (single isomer, unassigned) [Example 18], the “Cooperativity (alpha factor)” value on human M2 receptor [1] is recorded as 34. For the same molecule, at human M2 receptor [2], the EC50 came to 67 nM and the Emax came out at 87%.

Consider `CCC(COC(F)(F)F)NC(=O)c1cn(-c2ncc(F)cc2F)c2nc(N3C[C@@H](O)CC3=O)ccc2c1=O` (single isomer, unassigned) [Example 19], for which the “Cooperativity (alpha factor)” value at human M2 receptor [1] is reported as 38. On human M2 receptor [2], a half-maximal response (EC50) required 86 nM and the Efficiency is 91.50%.

Take `CC1CC(=O)N(c2ccc3c(=O)c(C(=O)N[C@H](C4CC4)C(F)(F)F)cn(-c4ncc(F)cc4F)c3n2)C1` (single isomer, unassigned) [Example 28]: the “Cooperativity (alpha factor)” value at human M2 receptor [1] is 17. Moreover, on human M2 receptor [2], the concentration for a half-maximal effect (EC50) came to 19 nM and the Emax turned out to be 100%.

On to `O=C(NC(c1ccccc1Cl)C(F)(F)F)c1cn(-c2ncc(F)cc2F)c2nc(N3C[C@@H](O)[C@H](O)C3)ccc2c1=O` (single isomer, unassigned) [Example 84], for which the “Cooperativity (alpha factor)” value at human M2 receptor [1] is given as 57. Besides, at human M2 receptor [2], the EC50 stood at 20 nM and the Emax was 100%.

On to `CC(NC(=O)c1cn(-c2ncc(F)cc2F)c2nc(N3C[C@@H](O)[C@H](O)C3)ccc2c1=O)C(F)(F)C(F)(F)F` (single isomer, unassigned) [Example 90], for which, on human M2 receptor [1], the “Cooperativity (alpha factor)” value was 41. On human M2 receptor [2], this molecule returned an EC50 of 24 nM and an Efficiency of 100.00%.

Turning to `CCC(NC(=O)c1cn(-c2ncc(F)cc2F)c2nc(N3C[C@@H](O)CC3=O)ccc2c1=O)C(F)(F)C(F)(F)F` (single isomer, unassigned) [Example 93], the “Cooperativity (alpha factor)” value on human M2 receptor [1] worked out at 41. Further, on human M2 receptor [2], the EC50 is 14 nM and the Emax is 98%.

`CCC(NC(=O)c1cn(-c2ncc(F)cc2F)c2nc(N3C[C@@H](O)[C@H](O)C3)ccc2c1=O)C(F)(F)C(F)(F)F` (single isomer, unassigned) [Example 97]: at human M2 receptor [1], the “Cooperativity (alpha factor)” value is 53. At human M2 receptor [2], the EC50 came to 38 nM and the Efficiency was determined as 96.50%.

In the case of `CCC(NC(=O)c1cn(-c2ncc(F)cc2F)c2nc(N3CCNC3=O)ccc2c1=O)C(F)(F)C(F)(F)F` (single isomer, unassigned) [Example 165, 1-(3,5-Difluoropyridin-2-yl)-4-oxo-7-(2-oxoimidazolidin-1-yl)-N-[1,1,1,2,2-pentafluoropentan-3-yl]-1,4-dihydro-1,8-naphthyridine-3-carboxamide], the “Cooperativity (alpha factor)” value on human M2 receptor [1] is listed as 30. Besides, at human M2 receptor [2], the EC50 came to 13 nM and the Emax was found to be 84%.

As to `O=C(N[C@@H](C1CC1)C(F)(F)F)c1cn(-c2ncc(F)cc2F)c2nc(N3C[C@@H](O)CC3=O)ccc2c1=O` [Example 14, N-[(1S)-1-Cyclopropyl-2,2,2-trifluoroethyl]-1-(3,5-difluoropyridin-2-yl)-7-[(4S)-4-hydroxy-2-oxopyrrolidin-1-yl]-4-oxo-1,4-dihydro-1,8-naphthyridine-3-carboxamide], the “Cooperativity (alpha factor)” value at human M2 receptor [1] was 50. In addition, at human M2 receptor [2], a half-maximal effect (EC50) was put at 87 nM and the Emax stood at 98.5%.

With `O=C(NC(C(F)(F)F)C(F)(F)F)c1cn(-c2ncc(F)cc2F)c2nc(N3C[C@@H](O)CC3=O)ccc2c1=O` [Example 15, 1-(3,5-Difluoropyridin-2-yl)-N-(1,1,1,3,3,3-hexafluoropropan-2-yl)-7-[(4S)-4-hydroxy-2-oxopyrrolidin-1-yl]-4-oxo-1,4-dihydro-1,8-naphthyridine-3-carboxamide], on human M2 receptor [1], the “Cooperativity (alpha factor)” value stood at 63. At human M2 receptor [2], it took 43 nM to reach a half-maximal effect (EC50) and the Emax amounted to 96.2%.

As to `O=C(Nc1c(Cl)cccc1Cl)c1cn(-c2ncc(F)cc2F)c2nc(N3C[C@@H](O)CC3=O)ccc2c1=O` [Example 16, N-(2,6-Dichlorophenyl)-1-(3,5-difluoropyridin-2-yl)-7-[(4S)-4-hydroxy-2-oxopyrrolidin-1-yl]-4-oxo-1,4-dihydro-1,8-naphthyridine-3-carboxamide], on human M2 receptor [1], the “Cooperativity (alpha factor)” value stood at 40. On human M2 receptor [2], a half-maximal effect (EC50) was put at 48 nM and the Emax was 99%.

In the case of `CC[C@H](NC(=O)c1cn(-c2ncc(F)cc2F)c2nc(N3CC(C)CC3=O)ccc2c1=O)C(F)(F)F` (stereo partly drawn) [Example 30, 1-(3,5-Difluoropyridin-2-yl)-7-[4-methyl-2-oxopyrrolidin-1-yl]-4-oxo-N-[(2S)-1,1,1-trifluorobutan-2-yl]-1,4-dihydro-1,8-naphthyridine-3-carboxamide], on human M2 receptor [1], the “Cooperativity (alpha factor)” value is on record as 14. On human M2 receptor [2], the half-maximal effective concentration (EC50) came out at 64 nM and the Emax was 99%.

Take `O=C(NC(C(F)(F)F)C(F)(F)F)c1cn(-c2ncc(F)cc2F)c2nc(N3C[C@@H](O)[C@@H](O)C3)ccc2c1=O` [Example 55, 1-(3,5-Difluoropyridin-2-yl)-7-[(3R,4S)-3,4-dihydroxypyrrolidin-1-yl]-N-(1,1,1,3,3,3-hexafluoropropan-2-yl)-4-oxo-1,4-dihydro-1,8-naphthyridine-3-carboxamide]: at human M2 receptor [1], the “Cooperativity (alpha factor)” value is 79. Moreover, at human M2 receptor [2], the 50% effective concentration (EC50) worked out at 110 nM and the Emax was determined as 100%.

For `O=C(NC(C(F)(F)F)C(F)(F)F)c1cn(-c2ncc(F)cc2F)c2nc(N3C[C@@H](O)[C@H](O)C3)ccc2c1=O` [Example 56, 1-(3,5-Difluoropyridin-2-yl)-7-[(3R,4R)-3,4-dihydroxypyrrolidin-1-yl]-N-(1,1,1,3,3,3-hexafluoropropan-2-yl)-4-oxo-1,4-dihydro-1,8-naphthyridine-3-carboxamide], the “Cooperativity (alpha factor)” value on human M2 receptor [1] stood at 68. On human M2 receptor [2], the EC50 is 34 nM and the Emax is 100%.

For the molecule `CC[C@H](NC(=O)c1cn(-c2ncc(F)cc2F)c2nc(N3CCNC3=O)ccc2c1=O)C(F)(F)F` [Example 64, 1-(3,5-Difluoropyridin-2-yl)-4-oxo-7-(2-oxoimidazolidin-1-yl)-N-[(2S)-1,1,1-trifluorobutan-2-yl]-1,4-dihydro-1,8-naphthyridine-3-carboxamide], the “Cooperativity (alpha factor)” value on human M2 receptor [1] worked out at 32. Besides, on human M2 receptor [2], the concentration for a half-maximal effect (EC50) turned out to be 154 nM and the Emax worked out at 91.3%.

For `O=C(NC(C(F)(F)F)C(F)(F)F)c1cn(-c2ncc(F)cc2F)c2nc(N3CCC(CO)(CO)CC3)ccc2c1=O` [Example 186, 7-[4,4-Bis(hydroxymethyl)piperidin-1-yl]-1-(3,5-difluoropyridin-2-yl)-N-(1,1,1,3,3,3-hexafluoropropan-2-yl)-4-oxo-1,4-dihydro-1,8-naphthyridine-3-carboxamide], on human M2 receptor [2], the EC50 stood at 110 nM and the Emax worked out at 100%.

`CC(C)(NC(=O)c1cn(-c2ncc(F)cc2F)c2nc(N3CCC(CO)(CO)CC3)ccc2c1=O)C(F)(F)C(F)(F)F` [Example 187]: at human M2 receptor [2], a half-maximal effect (EC50) was put at 265 nM and the Emax was determined as 97.5%.

Turning to `CC(C)(NC(=O)c1cn(-c2ncc(F)cc2F)c2nc(N3CCC[C@@H]3CO)ccc2c1=O)C(F)(F)C(F)(F)F` [Example 188, 1-(3,5-Difluoropyridin-2-yl)-7-[(2R)-2-(hydroxymethyl)pyrrolidin-1-yl]-4-oxo-N-(3,3,4,4,4-pentafluoro-2-methylbutan-2-yl)-1,4-dihydro-1,8-naphthyridine-3-carboxamide], on human M2 receptor [2], the EC50 worked out at 118 nM and the Emax stood at 100%.

A word on the EC50: it is the concentration that produces a half-maximal response. A higher EC50 goes with a less potent agent.

The values are drawn from patent US10519154B2, “7-substituted 1-pyridyl-naphthyridine-3-carboxylic acid amides and use thereof” (Bayer Pharma Aktiengesellschaft, priority 2016, dated 2019).
